From ChEMBL document CHEMBL4627390, “Effect of Temperature on 1H NMR Spectra, Antitrypanosomal Activity, Conformational Analysis, and Molecular Docking of Curine Derivatives from Berberis brevissima” (2020)
In brackets after ≈: the same amount, converted by molar mass.

Key:
Type in all cases: functional
[1] = tested on: Trypanosoma brucei brucei; test: Antitrypanosomal activity against Trypanosoma brucei brucei TC427 trypomastigotes after 24 hrs by AlamarBlue assay; conditions: TC427, 24 h
[2] = tested on: Trypanosoma brucei brucei; test: Antitrypanosomal activity against Trypanosoma brucei brucei TC427 trypomastigotes assessed percent viability at 20 ug/ml after 24 hrs by AlamarBlue assay relative to DMSO
[3] = tested on: Trypanosoma brucei brucei; test: Antitrypanosomal activity against Trypanosoma brucei brucei

SMILES	MIC [3]	MIC [1]	Activity [2]
COc1cc2c3cc1Oc1cc(ccc1O)C[C@@H]1c4c(cc(OC)c(O)c4Oc4ccc(cc4)C[C@H]3N(C)CC2)CCN1C		3.8 µM (≈ 2.26 µg/mL)	1.9%
COc1cc2c3cc1Oc1cc(ccc1O)C[C@@H]1c4c(cc(OC)c(OC)c4Oc4ccc(cc4)C[C@H]3N(C)CC2)CCN1C		2.6 µM (≈ 1.58 µg/mL)	1.6%
COc1cc2c3cc1Oc1cc(ccc1OC(C)=O)C[C@@H]1c4c(cc(OC)c(OC)c4Oc4ccc(cc4)C[C@H]3N(C)CC2)CCN1C		2.3 µM (≈ 1.5 µg/mL)	1.4%
COc1cc2c3cc1Oc1cc(cc([N+](=O)[O-])c1O)C[C@@H]1c4c(cc(OC)c(OC)c4Oc4ccc(cc4)C[C@H]3N(C)CC2)CCN1C		2.2 µM (≈ 1.44 µg/mL)	1.5%

More lines, main results first:

MIC [3]	SMILES	MIC [1]	Activity [2]
27.6 µM (≈ 12.6 µg/mL)	COc1ccc2c(c1OC)C(C(Cl)(Cl)Cl)N1CCc3cc4c(cc3C1=C2)OCO4 (stereo not given)		
74.4 µM	COc1ccc2cc3[n+](cc2c1OC)CCc1cc2c(cc1-3)OCO2 [BERBERINE]		
